# In US20130231291A1, “FERMENTED SOYA BASED MIXTURE COMPRISING ISOFLAVONES- AGLICONES, EQUOL AND LUNASIL, PROCESS FOR THE PREPARATION AND USES THEREOF IN FOOD, MEDICAL AND COSMETIC FIELDS” (priority 2010, published 2013):
# Columns and labels:
# Format in all cases: cell-based, human
# Caco-2/TC7 cells [1] = assay: Nitric oxide (NO) release, Griess reagent; conditions: pre-treated 24 h at 10 μM (soya milk: equol 10 μM), then IFN-γ 1000 U/ml + LPS 100 ng/ml for 24 h
# Protocol: The cells have been pre-treated for 24 h with chemical compounds (10 μM) used as standards (equol, daidzein, genistein and glycitein) and soya milk, obtained from biological soya flour, not fermented or fermented using mixed selected starter, diluted at equol final concentration of 10 μM and sterile filtered. Successively, the cells have been stimulated with γ-interpheron (IFN-γ) (1000 U/ml) and lipopolysaccharide (LPS) (100 ng/ml) for 24 h. DMEM culture medium containing DMSO (1%, v/v) or methanol (0.5%, v/v) has been used as negative control. Data are the average of three triplicate experiments. Asterisk indicates meaningful differences (P<0.01) compared to negative control.
# The nitric oxide release (NO) from Caco-2/TC7 cells has been determined by measuring the oxidation products, i.e. nitrite and nitrate. After incubation with the different preparations, the supernatant of cell cultures has been mixed with an equal volume of Griess reagent (1%, p/v, sulfanilic acid in 0.5 M HCl and 0.1%, p/v, N-1-naphthylethylendiamine hydrochloride). After 30 min of incubation at room temp., the absorbance at 540 nm has been measured Nitrite concentration has been determined with reference to standard curve prepared with sodium nitrite.
# Preliminarily, Caco-2/TC7 cells have been treated for 24 h at concentration of 10 μM with the OFS fermented soya milk and diluted at equol final concentration of 10 μM or with not fermented soya milk. […] Successively, Caco-2/TC7 cells have been stimulated with INF-γ (1000 U/ml) e LPS (100 ng/ml) per 24 h.
# Caco-2/TC7 cells [2] = assay: TEER of Caco-2/TC7 cell layer; conditions: for TEER of cells stimulated with IFN-γ: IFN-γ 1000 U/ml, 24, 48 and 72 h, soya milk diluted at equol 10 μM
# Protocol: The incubation has been carried out in the presence of γ-interpheron (IFN-γ) (1000 U/ml (-▪-); IFN-γ and soya milk, obtained from biological soya flour, not fermented (-Δ-) or fermented with the selected mixed starter, diluted at equol final concentration of 10 μM and sterile filtered. (-x-). DMEM culture medium has been used as negative control (-♦-). Data are the average of three triplicate experiments. Asterisk indicates meaningful differences (P<0.01) compared to negative control.
# For TEER measurement Caco-2/TC7 cells have been inoculated (7.5×10^4 cell/ml) in a microplate container with 24 […] and a polyethylene filter (0.4 μm pore size). Before the treatment, the cells have been incubated for 21 days at 37° C. […] Integrity of cellular layer then has been determined by means of TEER measurements.
# Under culture conditions of this study, Caco-2/TC7 cells develop morphological and functional characteristics of enterocytes, including tight intercellular junctions, integrity thereof being measured by TEER determination. Preliminarily, TEER has been determined in the presence of standard chemical compounds (10-100 μM), fermented OFS soya milk and diluted at equol concentration of 10 μM, or not fermented OFS soya milk. […] Treatments of Caco-2/TC7 cells with INF-γ (1000 U/ml) favoured a remarkable decrease (P<0.003) of TEER value (FIG. 6).
# [3] = test system: interleukin-8 (IL-8) from Caco-2/TC7 cells; assay: Interleukin-8 release by ELISA after IL-1β stimulation; conditions: IL-1β 2 ng/ml for 24 h, then 24 h treatment at 10 μM (soya milk: equol 10 μM)
# Protocol: DMEM culture medium containing DMSO (1%, v/v) or methanol (0.5%, v/v) has been used as negative control. Data are the average of three triplicate experiments. Asterisk indicates meaningful differences (P<0.01) compared to negative control.
# For measurement of released interleukin-8 (IL-8) Caco-2/TC7 cells have previously been incubated (24 h) with interleukin-1β and then stimulated for further 24 h with the different preparations. The synthesis of pro-inflammatory IL-8 has been determined by ELISA assay (Bender MedSystems). The quantification has been carried out using a standard curve according to .kit instructions
# Interleukin-8 (IL-8) is a member of C—X—C chemokine family and plays a fundamental role in activation of neutrophil cells, thus initiating the inflammatory response. When Caco-2/TC7 cells are subjected to a treatment with inteleukin-1β (2 ng/ml) has been observed a meaningful increment (P<0.001) of IL-8 synthesis (FIG. 7).
# Caco-2/TC7 cells [4] = assay: Neutral Red uptake cytotoxicity assay; conditions: standard chemical compounds 5-100 μM; vs methanol and DMSO negative control
# Protocol: Human origin Caco-2 cells (clone TC7) have been cultured in Dulbecco (DMEM) medium, added with bovine foetal serum (10%), not essential amino acids (1%), gentamycin/streptomycin (50 μg/ml), glutamine (2 mM) and 4-2-hydroxyethyl-1-piperazinyl-ethanesulfonic acid (1%) (Di Cagno et al., 2010. Quorum sensing in sourdough Lactobacillus plantarum DC400: induction of plantaricin A (PlnA) under co-cultivation with other lactic acid bacteria and effect of PlnA on bacterial and Caco-2 cells. Proteomics in press). The cells viability has been determined by uptake assay of Neutral Red dye (Balls et al., 1987. Approaches to validation alternative methods in toxicology. In: Goldber A. M. (Ed). N.Y. Academic Press pp. 45-58). After treatment for 24-72 h with the different preparations, the cells have been washed with PBS buffer and incubated for 4 h at 37° C. with Neutral Red solution (33 mg/l). […] Plate reading has been carried out using Novapath reader (Biorad, Hercules, Calif.) (Di Cagno et al., 2010).
# With the purpose to test immunomodulating properties of isoflavones-aglicones contained in soya milk produced from biological soya flour (OFS), cytotoxicity against Caco-2/TC7 cells by standard chemical compounds (equol, daidzein, genistein and glycitein) at concentrations of 5-100 μM using Neutral Red (NR) uptake assay, firstly has been evaluated.
Structure (SMILES),NO release after IFN-γ and LPS stimulation (Caco-2/TC7 cells [1]),TEER of cells stimulated with IFN-γ (Caco-2/TC7 cells [2]),"effects on TEER without IFN-γ (Caco-2/TC7 cells [2]; equol at 100 μM, 72 h of incubation)",IL-8 synthesis [3],cell proliferation (Neutral Red uptake) (Caco-2/TC7 cells [4])
Oc1ccc([C@H]2COc3cc(O)ccc3C2)cc1 [equol],inhibited in a marked manner,trend similar to fermented OFS soya milk,exception,meaningful decrement,
O=c1c(-c2ccc(O)cc2)coc2cc(O)cc(O)c12 [genistein],considerable inhibition,trend similar to fermented OFS soya milk,,did not resulted in (P<0.10) a decrement,did not affect significantly cell proliferation
O=c1c(-c2ccc(O)cc2)coc2cc(O)ccc12 [daidzein],significantly increased,has not interfered with the negative effect caused by INF-γ,,meaningful decrement,
COc1cc2c(=O)c(-c3ccc(O)cc3)coc2cc1O [glycitein],considerable inhibition,trend similar to fermented OFS soya milk,,did not resulted in (P<0.10) a decrement,
